Source: EP0400785A2, “Ultraviolet curable phenyl and acrylamide group-containing silicone compositions” (DOW CORNING CORPORATION, priority 1989, dated 1990)

Tests used:
Format in all cases: physicochemical
[1] = Heat aging / thermal stability of cured composition in oven at 150°C (durometer); details: in Acrylamide-polymer B; after 20 hours at 150°C in an oven
Source text: (§1) Compositions were made from Acrylamide-polymer B and various compounds which might be considered useful as photosensitization systems. These included P-1 = 2 hydroxy-2-methylphenylpropan-1-one (Darocur^TM 1173) P-2 = diethoxyacetophenone P-3 = (1-hydroxycyclohexyl)phenylmethanone (Irgacure^TM 184) P-4 = benzophenone P-5 = a 50/50 weight mixture of P-1 and diisopropylaminoethanol. Each of the photosensitization systems were used in an amount of one weight percent except P-5 which was used in an amount of two weight percent. The weight percentage was based on the weight of Acrylamide-blend B. Each of the compositions were cured for a defined period of time by exposure to ultraviolet radiation on the LCU described in Example 2, set for 3 seconds per pass which measured about 400 mJ/cm² using a Light Bug. The hardness of the cured composition was measured by using equipment manufactured by Instrument MFG Co. on the Shore OO durometer scale using a 0.25 inch thick section of the cured material. The durometer was determined initially, after heat aging for 20 hours at 150°C. in an oven and after 20 hours in an autoclave at 12 1°C. and 15 psi pressure.
(§2) A gel composition was prepared by mixing 98 parts of Acrylamide-blend E, 1 part of (1-hydroxycyclohexyl)phenylmethanone and 1 part of a heat stability additive. Sodium and potassium contents were determined on uncured samples of the gel composition by using flame photometry of acid ashed gel composition after removal of silica by treatment with hydrofluoric acid. The amount of sodium and potassium were each less than 2 ppm. […] The irradiation dose was determined by using an IL 390 Light Bug manufactured by International Light of (Newburyport, Mass.). […] As determined by ASTM-D150, the dielectric constant at 100 Hz was 3.0 and at 100,000 Hz was 3.0. As determined by ASTM-D150, the dissipation factor at 100 Hz was 0.006 and at 100,000 Hz was 0.002. The glass transition temperature was -113°C. and there was no melting transition temperature as determined by differential scanning calorimetry. The thermal stability was determined by placing a sample of the cured gel composition in a forced air oven at 150°C. […] The autoclave stability was determined by placing a sample of cured gel composition in an autoclave at 121°C. with a pressure of 2.1 kg/cm².
(§3) A composition was prepared by blending 67 parts of Acrylamide-polymer D, 25 parts of 1,4 -butanediol diacrylate, 3 parts of 1-hydroxy-2-methyl-1-phenylpropan-1-one, 5 parts of an adhesion additive, 100 ppm of phenothiazine and 100 ppm of the monomethyl ether of hydroquinone. […] The ionic purity was determined and there was less than 2 ppm of sodium and less than 2 ppm potassium. […]

[2] = Autoclave stability of cured composition at 121°C (durometer); details: in Acrylamide-polymer B; after 20 hours in an autoclave at 12 1°C and 15 psi
Source text: as §1, §2, §3

[3] = Durometer hardness of cured composition (Shore scales); details: in Acrylamide-polymer B; 0.25 inch thick section of cured material
Source text: as §1, §2, §3

Row | SMILES | DUROMETER HEAT AGED [1] | DUROMETER AUTOCLAVE [2] | DUROMETER INITIAL [3]
1 | CC(C)(O)C(=O)c1ccccc1 [P-1, 2 hydroxy-2-methylphenylpropan-1-one] | 36 Shore OO | 39 Shore OO | 45 Shore OO
2 | CCOC(OCC)C(=O)c1ccccc1 [P-2, diethoxyacetophenone] | 30 Shore OO | 47 Shore OO | 42 Shore OO
3 | O=C(c1ccccc1)C1(O)CCCCC1 [P-3, (1-hydroxycyclohexyl)phenylmethanone] | 42 Shore OO | 40 Shore OO | 41 Shore OO
4 | O=C(c1ccccc1)c1ccccc1 [P-4, benzophenone] | 43 Shore OO | 44 Shore OO | 44 Shore OO
